Laboratory results published in patent US7897773B2, “Urea derivatives of tropane, their preparation and their therapeutic application” (Sanofi-Aventis, priority 2006, dated 2011).
“And” between values parts separate entries of the source, which are not always exact repeats. Equal entries are not always repeated. Structures can show the parent of a compound that is named as a salt. Where two headings read alike, the source gives them in different places. Values belong to the molecule of their own block, whether it stands above or below them.

Experiments:
11beta-HSD1 enzyme = target: T1, 11beta-HSD1 enzyme (Homo sapiens, UniProt P28845); test: SPA (Scintillation Proximity Assay) of 11beta-HSD1 inhibition, 384 well format; assay type: biochemical
T1 construct: made in house; host or cells: Saccharomyces cerevisiae
T1 sequence (P28845 whole entry, species assumed): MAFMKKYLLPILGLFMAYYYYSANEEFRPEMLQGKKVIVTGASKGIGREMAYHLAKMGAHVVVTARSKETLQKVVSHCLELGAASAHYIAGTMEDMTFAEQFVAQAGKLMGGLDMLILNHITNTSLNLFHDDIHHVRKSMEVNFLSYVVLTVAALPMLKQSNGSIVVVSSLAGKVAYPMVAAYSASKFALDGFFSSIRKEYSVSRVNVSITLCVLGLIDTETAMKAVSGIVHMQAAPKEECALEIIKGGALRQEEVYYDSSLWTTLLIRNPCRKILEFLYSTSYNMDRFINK
Method: The compounds according to the invention were the subject of pharmacological tests for determining their inhibitory activity on the 11beta-HSD1 enzyme which is an enzyme involved in lipid metabolism or glucose metabolism.
These tests consisted in measuring the in vitro inhibitory activity of the compounds of the invention by virtue of an SPA (Scintillation Proximity Assay) in 384 well format. The recombinant 11beta-HSD1 protein was produced in the yeast S. cerevisiae. The reaction was carried out by incubating the enzyme in the presence of ^3H-cortisone and NADPH, in the absence or in the presence of an increasing concentration of inhibitor. SPA beads coupled to an anti-mouse antibody, pre-incubated with an anti-cortisol antibody, made it possible to measure the amount of cortisol formed during the course of the reaction.
The inhibitory activity with respect to the 11beta-HSD1 enzyme is given by the concentration which inhibits 50% of the activity of 11beta-HSD1 (IC50).

11βHSD1 in the eyes = target: T2, 11βHSD1 in the eyes (Homo sapiens, UniProt P28845); conditions: normal volunteers; after seven days of treatment; cited from earlier work
T2 construct: The functional activity of 11βHSD1 in the eyes has been evaluated by studying the action of carbenoxolone in normal volunteers; host or cells: ocular tissue of human volunteers (in vivo)
T2 sequence (P28845 whole entry): as the sequence (P28845 whole entry, species assumed) above

[1] = recombinant 11beta-HSD1 produced in yeast S. cerevisiae, 3H-cortisone and NADPH, read-out: concentration which inhibits 50% of the activity of 11beta-HSD1 (IC50)

SMILES: O=C(N1CCCc2ccccc21)N1C2C=C(c3cccnc3F)CC1CC2 (centres unmarked) [Compound 13, (3,4-dihydro-2H-quinolin-1-yl)-[3-(2-fluoropyridin-3-yl)-8-azabicyclo[3.2.1]oct-2-en-8-yl]methanone]
- IC50 (11beta-HSD1 enzyme): 0.122 µM

- melting point: 98 to 99 °C
SMILES: O=C(N1CCCc2ccccc21)N1C2CCC1CC(c1ccc(F)nc1)C2 (centres unmarked) (as salt: HCl)

SMILES: O=C(N1CCCc2ccccc21)N1C2C=C(c3cccc4[nH]ccc34)CC1CC2 (centres unmarked) [Compound 28, (3,4-dihydro-2H-quinolin-1-yl)-[3-(1H-indol-4-yl)-8-azabicyclo[3.2.1]oct-2-en-8-yl]methanone]
- IC50 (11beta-HSD1 enzyme; [1]): 0.19 µM

SMILES: O=C(N1CCCc2ccccc21)N1C2CCC1CC(c1ccccc1)C2 (centres unmarked) [Compound 7, (3,4-dihydro-2H-quinolin-1-yl)-(3-phenyl-8-azabicyclo-[3.2.1]oct-8-yl)methanone]
- IC50 (11beta-HSD1 enzyme; [1]): 0.004 µM
- melting point: 133 to 134 °C

SMILES: CC1(C)[C@@H](OC(=O)CCC(=O)O)CC[C@]2(C)[C@H]3C(=O)C=C4[C@@H]5C[C@@](C)(C(=O)O)CC[C@]5(C)CC[C@@]4(C)[C@]3(C)CC[C@@H]12 [carbenoxolone]
- IOP is reduced by (11βHSD1 in the eyes): 18%

SMILES: O=C(N1CCCc2ccccc21)N1C2CCC1CC(c1cccnc1)C2 (centres unmarked) (as salt: HCl) [Compound 4, 1-[(3-pyridin-3-yl-8-azabicyclo[3.2.1]oct-8-yl)carbonyl]-1,2,3,4-tetrahydroquinoline Hydrochloride]
- melting point: 218 to 220 °C and 218 to 222 °C

SMILES: O=C(N1CCCc2ccccc21)N1C2CCC1CC(c1cccnc1)C2 (centres unmarked) [Compound 4, 1-[(3-pyridin-3-yl-8-azabicyclo[3.2.1]oct-8-yl)carbonyl]-1,2,3,4-tetrahydroquinoline Hydrochloride]
- IC50 (11beta-HSD1 enzyme): 0.019 µM
